Columns and labels:
[1] = refractive index (Na D-line) (dimensionless); xn = mol fraction of the nth substance listed; conditions: 100 kPa, Liquid, Standard Abbe refractometry
[2] = xn = mol fraction of the nth substance listed; conditions: 100 kPa, Liquid; for viscosity: Capillary tube (Ostwald / Ubbelohde) method; for mass density: Vibrating tube method

C1CC[C@H]2CCCC[C@@H]2C1 [trans-decahydronaphthalene] + CCCCCCCCC
Conditions | mass density, [2] [kg/m3] | refractive index, [1] | viscosity, [2] [mPa·s]
293.15 K, x1 = 0.1036 | 732.72 | – | 0.772
293.15 K, x1 = 0.2018 | 746.84 | – | 0.836
293.15 K, x1 = 0.3016 | 761.45 | – | 0.912
293.15 K, x1 = 0.4042 | 776.68 | – | 1.004
293.15 K, x1 = 0.4954 | 790.42 | – | 1.109
293.15 K, x1 = 0.6009 | 806.55 | – | 1.253
293.15 K, x1 = 0.6984 | 821.69 | – | 1.409
293.15 K, x1 = 0.8001 | 837.66 | – | 1.635
293.15 K, x1 = 0.8933 | 852.53 | – | 1.864
293.15 K, x1 = 1 | 869.78 | – | 2.112
298.15 K, x1 = 0.1036 | 728.87 | 1.4084 | 0.725
298.15 K, x1 = 0.2018 | 743 | 1.4146 | 0.781
298.15 K, x1 = 0.3016 | 757.63 | 1.4205 | 0.849
298.15 K, x1 = 0.4042 | 772.88 | 1.4273 | 0.934
298.15 K, x1 = 0.4954 | 786.63 | 1.4326 | 1.028
298.15 K, x1 = 0.6009 | 802.78 | 1.4397 | 1.154
298.15 K, x1 = 0.6984 | 817.94 | 1.4459 | 1.305
298.15 K, x1 = 0.8001 | 833.93 | 1.4526 | 1.505
298.15 K, x1 = 0.8933 | 848.8 | 1.4591 | 1.701
298.15 K, x1 = 1 | 866.07 | 1.4662 | 1.925
303.15 K, x1 = 0.1036 | 724.99 | – | 0.681
303.15 K, x1 = 0.2018 | 739.14 | – | 0.732
303.15 K, x1 = 0.3016 | 753.79 | – | 0.795
303.15 K, x1 = 0.4042 | 769.06 | – | 0.871
303.15 K, x1 = 0.4954 | 782.83 | – | 0.957
303.15 K, x1 = 0.6009 | 798.99 | – | 1.075
303.15 K, x1 = 0.6984 | 814.17 | – | 1.213
303.15 K, x1 = 0.8001 | 830.18 | – | 1.393
303.15 K, x1 = 0.8933 | 845.07 | – | 1.568
303.15 K, x1 = 1 | 862.34 | – | 1.769
308.15 K, x1 = 0.1036 | 721.09 | 1.4038 | 0.642
308.15 K, x1 = 0.2018 | 735.26 | 1.4105 | 0.688
308.15 K, x1 = 0.3016 | 749.94 | 1.4163 | 0.746
308.15 K, x1 = 0.4042 | 765.23 | 1.423 | 0.816
308.15 K, x1 = 0.4954 | 779.01 | 1.4286 | 0.893
308.15 K, x1 = 0.6009 | 795.19 | 1.435 | 0.998
308.15 K, x1 = 0.6984 | 810.39 | 1.4418 | 1.127
308.15 K, x1 = 0.8001 | 826.41 | 1.4486 | 1.29
308.15 K, x1 = 0.8933 | 841.33 | 1.455 | 1.447
308.15 K, x1 = 1 | 858.61 | 1.4618 | 1.628
313.15 K, x1 = 0.1036 | 717.18 | – | 0.607
313.15 K, x1 = 0.2018 | 731.37 | – | 0.65
313.15 K, x1 = 0.3016 | 746.07 | – | 0.704
313.15 K, x1 = 0.4042 | 761.38 | – | 0.766
313.15 K, x1 = 0.4954 | 775.18 | – | 0.838
313.15 K, x1 = 0.6009 | 791.38 | – | 0.929
313.15 K, x1 = 0.6984 | 806.6 | – | 1.052
313.15 K, x1 = 0.8001 | 822.64 | – | 1.202
313.15 K, x1 = 0.8933 | 837.57 | – | 1.334
313.15 K, x1 = 1 | 854.88 | – | 1.505
318.15 K, x1 = 0.1036 | 713.25 | 1.3993 | 0.576
318.15 K, x1 = 0.2018 | 727.46 | 1.406 | 0.614
318.15 K, x1 = 0.3016 | 742.18 | 1.4122 | 0.663
318.15 K, x1 = 0.4042 | 757.52 | 1.4187 | 0.723
318.15 K, x1 = 0.4954 | 771.34 | 1.4249 | 0.786
318.15 K, x1 = 0.6009 | 787.56 | 1.4312 | 0.869
318.15 K, x1 = 0.6984 | 802.8 | 1.4379 | 0.984
318.15 K, x1 = 0.8001 | 818.86 | 1.4445 | 1.118
318.15 K, x1 = 0.8933 | 833.81 | 1.4509 | 1.241
318.15 K, x1 = 1 | 851.14 | 1.4581 | 1.394
323.15 K, x1 = 0.1036 | 709.3 | – | 0.547
323.15 K, x1 = 0.2018 | 723.54 | – | 0.583
323.15 K, x1 = 0.3016 | 738.28 | – | 0.627
323.15 K, x1 = 0.4042 | 753.64 | – | 0.682
323.15 K, x1 = 0.4954 | 767.48 | – | 0.742
323.15 K, x1 = 0.6009 | 783.73 | – | 0.821
323.15 K, x1 = 0.6984 | 798.99 | – | 0.922
323.15 K, x1 = 0.8001 | 815.08 | – | 1.041
323.15 K, x1 = 0.8933 | 830.05 | – | 1.156
323.15 K, x1 = 1 | 847.4 | – | 1.295

C1CC[C@H]2CCCC[C@H]2C1 [cis-decahydronaphthalene] + CCCCCCCCCCC
Conditions | mass density, [2] [kg/m3] | refractive index, [1] | viscosity, [2] [mPa·s]
293.15 K, x1 = 0.1086 | 753.22 | – | 1.24
293.15 K, x1 = 0.2072 | 765.62 | – | 1.31
293.15 K, x1 = 0.3066 | 778.83 | – | 1.415
293.15 K, x1 = 0.4031 | 792.39 | – | 1.542
293.15 K, x1 = 0.5028 | 807.23 | – | 1.69
293.15 K, x1 = 0.5976 | 822.17 | – | 1.829
293.15 K, x1 = 0.6835 | 836.42 | – | 2.021
293.15 K, x1 = 0.7983 | 856.82 | – | 2.368
293.15 K, x1 = 0.8954 | 875.37 | – | 2.726
293.15 K, x1 = 1 | 896.85 | – | 3.355
298.15 K, x1 = 0.1086 | 749.55 | 1.4192 | 1.148
298.15 K, x1 = 0.2072 | 761.95 | 1.4242 | 1.208
298.15 K, x1 = 0.3066 | 775.16 | 1.4294 | 1.3
298.15 K, x1 = 0.4031 | 788.74 | – | 1.415
298.15 K, x1 = 0.4075 | – | 1.4352 | –
298.15 K, x1 = 0.5028 | 803.55 | – | 1.554
298.15 K, x1 = 0.5059 | – | 1.4411 | –
298.15 K, x1 = 0.592 | – | 1.4469 | –
298.15 K, x1 = 0.5976 | 818.48 | – | 1.67
298.15 K, x1 = 0.6835 | 832.71 | 1.4532 | 1.84
298.15 K, x1 = 0.7983 | 853.1 | 1.4609 | 2.139
298.15 K, x1 = 0.8954 | 871.62 | 1.4686 | 2.458
298.15 K, x1 = 1 | 893.06 | 1.4776 | 3.011
303.15 K, x1 = 0.1086 | 745.85 | – | 1.062
303.15 K, x1 = 0.2072 | 758.26 | – | 1.112
303.15 K, x1 = 0.3066 | 771.47 | – | 1.201
303.15 K, x1 = 0.4031 | 785.05 | – | 1.326
303.15 K, x1 = 0.5028 | 799.85 | – | 1.424
303.15 K, x1 = 0.5976 | 814.77 | – | 1.53
303.15 K, x1 = 0.6835 | 828.99 | – | 1.682
303.15 K, x1 = 0.7983 | 849.36 | – | 1.949
303.15 K, x1 = 0.8954 | 867.86 | – | 2.233
303.15 K, x1 = 1 | 889.26 | – | 2.718
308.15 K, x1 = 0.1086 | 742.15 | 1.4151 | 0.977
308.15 K, x1 = 0.2072 | 754.56 | 1.4198 | 1.034
308.15 K, x1 = 0.3066 | 767.77 | 1.4251 | 1.111
308.15 K, x1 = 0.4031 | 781.35 | – | 1.215
308.15 K, x1 = 0.4075 | – | 1.431 | –
308.15 K, x1 = 0.5028 | 796.14 | – | 1.307
308.15 K, x1 = 0.5059 | – | 1.4366 | –
308.15 K, x1 = 0.592 | – | 1.4426 | –
308.15 K, x1 = 0.5976 | 811.05 | – | 1.41
308.15 K, x1 = 0.6835 | 825.27 | 1.4487 | 1.546
308.15 K, x1 = 0.7983 | 845.62 | 1.4565 | 1.818
308.15 K, x1 = 0.8954 | 864.1 | 1.464 | 2.035
308.15 K, x1 = 1 | 885.46 | 1.4736 | 2.47
313.15 K, x1 = 0.1086 | 738.44 | – | 0.903
313.15 K, x1 = 0.2072 | 750.84 | – | 0.962
313.15 K, x1 = 0.3066 | 764.05 | – | 1.034
313.15 K, x1 = 0.4031 | 777.64 | – | 1.115
313.15 K, x1 = 0.5028 | 792.42 | – | 1.204
313.15 K, x1 = 0.5976 | 807.33 | – | 1.303
313.15 K, x1 = 0.6835 | 821.53 | – | 1.426
313.15 K, x1 = 0.7983 | 841.87 | – | 1.673
313.15 K, x1 = 0.8954 | 860.33 | – | 1.859
313.15 K, x1 = 1 | 881.65 | – | 2.252
318.15 K, x1 = 0.1086 | 734.71 | 1.4114 | 0.843
318.15 K, x1 = 0.2072 | 747.12 | 1.416 | 0.899
318.15 K, x1 = 0.3066 | 760.33 | 1.4213 | 0.964
318.15 K, x1 = 0.4031 | 773.91 | – | 1.038
318.15 K, x1 = 0.4075 | – | 1.4275 | –
318.15 K, x1 = 0.5028 | 788.7 | – | 1.119
318.15 K, x1 = 0.5059 | – | 1.4331 | –
318.15 K, x1 = 0.592 | – | 1.4383 | –
318.15 K, x1 = 0.5976 | 803.6 | – | 1.209
318.15 K, x1 = 0.6835 | 817.79 | 1.4448 | 1.319
318.15 K, x1 = 0.7983 | 838.11 | 1.4536 | 1.505
318.15 K, x1 = 0.8954 | 856.55 | 1.4612 | 1.71
318.15 K, x1 = 1 | 877.85 | 1.4696 | 2.063
323.15 K, x1 = 0.1086 | 730.98 | – | 0.786
323.15 K, x1 = 0.2072 | 743.39 | – | 0.841
323.15 K, x1 = 0.3066 | 756.6 | – | 0.9
323.15 K, x1 = 0.4031 | 770.18 | – | 0.97
323.15 K, x1 = 0.5028 | 784.96 | – | 1.043
323.15 K, x1 = 0.5976 | 799.86 | – | 1.124
323.15 K, x1 = 0.6835 | 814.05 | – | 1.225
323.15 K, x1 = 0.7983 | 834.35 | – | 1.392
323.15 K, x1 = 0.8954 | 852.77 | – | 1.577
323.15 K, x1 = 1 | 874.05 | – | 1.898

From the NIST ThermoML archive (doi:10.1021/je400250u)
